Among the data in patent US20210253642A1, “CALPAIN MODULATORS AND THERAPEUTIC USES THEREOF BACKGROUND” (Blade Therapeutics, Inc., priority 2018, published 2021) are IC50 values, retold here.

Assay type in all cases: biochemical
The target of one assay is T1, Human Cathepsin L (Homo sapiens, UniProt P07711).
T1 construct: purchased
In words: Cathepsin continuous fluorescence inhibition assay. The note with it: Column G; enzyme 0.025 nM, substrate 1 uM, pH 6.0, 30 minutes pre-incubation with inhibitor. How it is done: (§1) Cathepsin activity and inhibition thereof was assessed by means of a continuous fluorescence assay. All assays were run in 384 well format and utilized peptide substrates that liberate fluorescence upon protease catalyzed cleavage. FLIPR plate readers (Molecular Devices Inc.) were used to monitor reactions and extract initial rates which were then fit (four parameter logistic function) to obtain IC50 values. All enzymes are human. All enzymes and reagents were obtained commercially and are summarized in Tables 1 and 2 below along with assay conditions.

The target of another assay is T2, Human Cathepsin B (Homo sapiens, UniProt P07858).
T2 construct: purchased
In words: Cathepsin continuous fluorescence inhibition assay. Conditions: Column D; enzyme 25 nM, substrate 1 uM, pH 5.0, 30 minutes pre-incubation with inhibitor. How it is done:
as §1

In a further assay the target is T3, Human Cathepsin K (Homo sapiens, UniProt P43235).
T3 construct: purchased
T3 sequence (P43235 115-329): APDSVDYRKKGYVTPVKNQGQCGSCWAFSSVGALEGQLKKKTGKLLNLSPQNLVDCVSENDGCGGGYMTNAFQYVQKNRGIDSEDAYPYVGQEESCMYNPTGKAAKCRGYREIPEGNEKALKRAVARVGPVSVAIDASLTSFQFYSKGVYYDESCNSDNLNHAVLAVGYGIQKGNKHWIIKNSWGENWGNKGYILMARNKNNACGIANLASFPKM
In words: Cathepsin continuous fluorescence inhibition assay. Conditions: Column E; enzyme 10 nM, substrate 1 uM, pH 5.5, 30 minutes pre-incubation with inhibitor. On the procedure: as §1

The target in the next assay is T4, Human Cathepsin S (Homo sapiens, UniProt P25774).
T4 construct: purchased
T4 sequence (P25774 115-331): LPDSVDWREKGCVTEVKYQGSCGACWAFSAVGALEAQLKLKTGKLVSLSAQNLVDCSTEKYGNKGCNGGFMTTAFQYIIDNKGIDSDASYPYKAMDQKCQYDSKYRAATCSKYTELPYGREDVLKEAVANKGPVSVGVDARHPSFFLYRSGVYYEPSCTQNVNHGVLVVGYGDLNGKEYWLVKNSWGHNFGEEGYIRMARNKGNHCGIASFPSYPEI
In words: Cathepsin continuous fluorescence inhibition assay. The note with it: Column F; enzyme 6 nM, substrate 1 uM, pH 4.5, 30 minutes pre-incubation with inhibitor. How it is done:
as §1

A further assay deals with T5, Human Calpain 2/NS1 (Homo sapiens, UniProt P17655).
T5 sequence (P17655 1-700): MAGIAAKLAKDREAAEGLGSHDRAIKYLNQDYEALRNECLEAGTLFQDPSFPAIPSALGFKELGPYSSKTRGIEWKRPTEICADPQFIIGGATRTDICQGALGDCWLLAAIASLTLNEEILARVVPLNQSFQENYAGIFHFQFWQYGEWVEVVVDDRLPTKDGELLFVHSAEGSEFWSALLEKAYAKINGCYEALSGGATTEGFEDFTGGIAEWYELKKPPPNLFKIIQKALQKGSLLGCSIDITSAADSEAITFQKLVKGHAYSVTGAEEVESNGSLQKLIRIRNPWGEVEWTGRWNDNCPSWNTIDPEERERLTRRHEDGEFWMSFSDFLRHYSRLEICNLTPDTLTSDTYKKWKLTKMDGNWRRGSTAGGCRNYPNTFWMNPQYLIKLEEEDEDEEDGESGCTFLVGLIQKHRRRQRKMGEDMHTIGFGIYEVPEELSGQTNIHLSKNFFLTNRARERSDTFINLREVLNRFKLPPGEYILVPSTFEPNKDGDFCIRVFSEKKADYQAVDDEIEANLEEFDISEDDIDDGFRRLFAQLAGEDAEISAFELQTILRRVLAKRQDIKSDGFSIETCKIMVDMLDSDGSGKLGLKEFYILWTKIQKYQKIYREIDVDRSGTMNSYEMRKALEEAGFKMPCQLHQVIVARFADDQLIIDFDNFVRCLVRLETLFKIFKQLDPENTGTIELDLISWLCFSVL
T5 sequence (P04632 1-268 partner): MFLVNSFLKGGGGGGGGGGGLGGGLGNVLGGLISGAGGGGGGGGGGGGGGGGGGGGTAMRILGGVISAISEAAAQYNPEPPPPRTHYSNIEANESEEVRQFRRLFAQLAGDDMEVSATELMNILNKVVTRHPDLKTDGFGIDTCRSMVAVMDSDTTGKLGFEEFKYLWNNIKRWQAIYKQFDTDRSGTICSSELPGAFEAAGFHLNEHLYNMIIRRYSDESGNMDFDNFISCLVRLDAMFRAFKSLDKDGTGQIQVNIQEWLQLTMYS
In words: Calpain continuous fluorescence (FRET) inhibition assay. The note with it: Column B; SensoLyte 520 FRET substrate, pH 7.5, 25C. On the procedure: (§2) Calpain 1, 2, and 9 activity and inhibition thereof was assessed by means of a continuous fluorescence assay. The SensoLyte 520 Calpain substrate (Anaspec Inc.) was optimized for detecting calpain activity. This substrate contains an internally quenched 5-FAM/QXLTM 520 FRET pair. Calpains 1, 2, and 9 cleave the FRET substrate into two separate fragments resulting in an increase of 5-FAM fluorescence that is proportional to calpain activity
(§3) Assays were typically setup in black 384-well plates using automated liquid handling as follows. Calpain assay base buffer typically contains 50 mM Tris, pH 7.5, 100 mM NaCl and 1 mM DTT. Inhibitors were serially diluted in DMSO and used to setup 2× mixtures with calpains in the aforementioned buffer. After incubation at ambient temperature (25C), the reaction was initiated by adding a 2× mix of the fluorescent peptide substrate and CaCl2) (required for in-situ calpain activation) in the same buffer. Reaction progress curve data were typically collected for 10 min using excitation/emission wavelengths of 490 nm/520 nm on SpectraMax i3x or the FLIPR-Tetra plate readers (Molecular Devices Inc.). Reaction rates were calculated from progress curve slopes typically over 1-5 min. Dose response curves (rate vs. log inhibitor concentration) were typically fit to a 4-parameter logistic function to extract IC50 values.

In a further assay the target is T6, Human Calpain 9/NS1 (Homo sapiens, UniProt O14815).
T6 sequence (O14815 1-690): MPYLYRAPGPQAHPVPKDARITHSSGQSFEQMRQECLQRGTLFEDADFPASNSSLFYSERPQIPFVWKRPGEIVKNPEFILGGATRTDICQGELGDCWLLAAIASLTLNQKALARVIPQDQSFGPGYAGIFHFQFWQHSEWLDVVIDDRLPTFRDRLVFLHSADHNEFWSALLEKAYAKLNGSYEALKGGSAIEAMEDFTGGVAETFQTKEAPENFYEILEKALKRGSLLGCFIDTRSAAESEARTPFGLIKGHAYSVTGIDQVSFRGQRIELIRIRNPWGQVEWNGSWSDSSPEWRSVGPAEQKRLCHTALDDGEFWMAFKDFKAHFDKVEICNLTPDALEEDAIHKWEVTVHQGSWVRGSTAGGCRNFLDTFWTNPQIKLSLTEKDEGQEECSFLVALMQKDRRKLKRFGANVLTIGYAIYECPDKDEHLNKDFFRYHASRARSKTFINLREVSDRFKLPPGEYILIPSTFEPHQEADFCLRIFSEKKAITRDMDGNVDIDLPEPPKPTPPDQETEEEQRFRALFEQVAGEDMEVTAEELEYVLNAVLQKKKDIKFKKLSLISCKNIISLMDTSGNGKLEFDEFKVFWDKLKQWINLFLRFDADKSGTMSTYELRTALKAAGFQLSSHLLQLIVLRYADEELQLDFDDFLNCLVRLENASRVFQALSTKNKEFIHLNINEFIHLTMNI
T6 sequence (P04632 1-268 partner): T5 sequence (P04632 1-268 partner)
The assay is described as above. The note with it: Column C; SensoLyte 520 FRET substrate, pH 7.5, 25C. How it is done: as §2, §3

A further assay concerns the target T7, Human Calpain 1/NS1 (Homo sapiens, UniProt P07384).
T7 sequence (P07384 1-714): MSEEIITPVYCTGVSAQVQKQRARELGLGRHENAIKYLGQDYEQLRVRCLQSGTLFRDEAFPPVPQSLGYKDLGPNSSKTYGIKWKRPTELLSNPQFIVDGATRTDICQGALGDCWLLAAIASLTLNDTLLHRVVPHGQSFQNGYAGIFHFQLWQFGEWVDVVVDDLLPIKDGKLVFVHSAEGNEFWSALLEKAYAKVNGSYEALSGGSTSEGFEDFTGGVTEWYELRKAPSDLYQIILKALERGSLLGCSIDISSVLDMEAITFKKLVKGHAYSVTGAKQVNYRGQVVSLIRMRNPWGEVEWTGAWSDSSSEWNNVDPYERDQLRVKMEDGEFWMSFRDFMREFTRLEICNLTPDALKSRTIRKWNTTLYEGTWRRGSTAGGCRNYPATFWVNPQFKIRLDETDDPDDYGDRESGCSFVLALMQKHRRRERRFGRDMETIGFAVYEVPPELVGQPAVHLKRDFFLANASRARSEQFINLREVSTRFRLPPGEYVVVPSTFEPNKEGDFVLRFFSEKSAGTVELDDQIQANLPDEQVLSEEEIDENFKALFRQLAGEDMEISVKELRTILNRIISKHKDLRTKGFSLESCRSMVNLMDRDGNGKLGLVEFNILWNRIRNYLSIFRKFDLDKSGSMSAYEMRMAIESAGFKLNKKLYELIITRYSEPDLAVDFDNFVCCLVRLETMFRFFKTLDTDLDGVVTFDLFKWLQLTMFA
T7 sequence (P04632 1-268 partner): T5 sequence (P04632 1-268 partner)
The description is as above. The note with it: Column A; SensoLyte 520 FRET substrate, pH 7.5, 25C. On the procedure:
as §2, §3

The structures appear in SMILES notation. Where only a bound is given, the exact number is not on record here.

T1 sequence (P07711 114-333): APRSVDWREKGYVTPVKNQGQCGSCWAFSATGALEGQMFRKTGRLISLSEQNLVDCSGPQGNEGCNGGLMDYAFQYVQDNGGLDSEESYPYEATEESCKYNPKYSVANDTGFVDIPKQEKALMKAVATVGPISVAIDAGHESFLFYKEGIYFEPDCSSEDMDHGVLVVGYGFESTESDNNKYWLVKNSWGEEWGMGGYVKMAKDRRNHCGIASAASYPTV

With `CCCCCC/C=C\CC(=O)N[C@@H](Cc1ccc(O)cc1)C(=O)N[C@H](C(=O)N[C@@H]1/C=C/C(=O)N[C@@H](C(C)C)C(=O)N[C@@H](C)C(=O)OC1)C(C)C` [Compound 16, (Z)—N—((S)-3-(4-hydroxyphenyl)-1-(((S)-1-(((3S,6S,11R,E)-6-isopropyl-3-methyl-2,5,8-trioxo-1-oxa-4,7-diazacyclododec-9-en-11-yl)amino)-3-methyl-1-oxobutan-2-yl)amino)-1-oxopropan-2-yl)dec-3-enamide], the 50% inhibitory concentration (IC50) (in general, the concentration needed to halve the response being measured) at Human Cathepsin L is under 3 µM; on Human Cathepsin B, under 3 µM; at Human Cathepsin K it was under 3 µM; on Human Cathepsin S, under 3 µM; against Human Calpain 2/NS1, under 3 µM; against Human Calpain 9/NS1, over 10 µM. In addition, the concentration for half-maximal inhibition (IC50) against Human Calpain 1/NS1 was under 3 µM.

With `CC(C)[C@@H]1NC(=O)/C=C/[C@@H](NC(=O)OC(C)(C)C)COC(=O)[C@H](Cc2ccc(O)cc2)NC1=O` [Compound 1, Tert-butyl ((3S,6S,11R,E)-3-(4-Hydroxybenzyl)-6-isopropyl-2,5,8-trioxo-1-oxa-4,7-Diazacyclododec-9-en-11-yl)carbamate], the half-inhibitory concentration (IC50) is under 3 µM against Human Cathepsin L; under 3 µM at Human Cathepsin B; under 3 µM at Human Cathepsin K; under 3 µM on Human Cathepsin S; over 10 µM on Human Calpain 2/NS1; over 10 µM against Human Calpain 9/NS1. The same compound registered a half-inhibitory concentration (IC50) on Human Calpain 1/NS1 of over 10 µM.

For `CC(C)[C@@H]1NC(=O)/C=C/[C@@H](NC(=O)CNC(=O)[C@H](Cc2ccc(O)cc2)NC(=O)OC(C)(C)C)COC(=O)[C@H](Cc2ccc(O)cc2)NC1=O` [Compound 8, tert-butyl ((s)-1-((2-(((3S,6S,11R,E)-3-(4-hydroxybenzyl)-6-isopropyl-2,5,8-trioxo-1-oxa-4,7-diazacyclododec-9-en-11-yl)amino)-2-oxoethyl)amino)-3-(4-hydroxyphenyl)-1-oxopropan-2-yl)carbamate], the IC50 against Human Cathepsin L is under 3 µM; against Human Cathepsin B, under 3 µM; against Human Cathepsin K, under 3 µM; against Human Cathepsin S it was under 3 µM; against Human Calpain 2/NS1, over 10 µM; against Human Calpain 9/NS1 it was over 10 µM. Also, on Human Calpain 1/NS1, the IC50 is over 10 µM.

On to `CCCCCC/C=C\CC(=O)N[C@@H](Cc1ccc(O)cc1)C(=O)N[C@H](C(=O)N[C@@H]1/C=C/C(=O)N[C@@H](C(C)C)C(=O)N[C@@H](Cc2ccc(OC)cc2)C(=O)OC1)C(C)C` [Compound 11, (Z)—N—((S)-3-(4-hydroxyphenyl)-1-(((S)-1-(((3S,6S,11R,E)-6-isopropyl-3-(4-methoxybenzyl)-2,5,8-trioxo-1-oxa-4,7-diazacyclododec-9-en-11-yl)amino)-3-methyl-1-oxobutan-2-yl)amino)-1-oxopropan-2-yl)dec-3-enamide], for which the 50% inhibitory concentration (IC50) on Human Cathepsin L is under 3 µM; on Human Cathepsin B, under 3 µM; against Human Cathepsin K it was under 3 µM; on Human Cathepsin S it was under 3 µM; on Human Calpain 2/NS1, under 3 µM; at Human Calpain 9/NS1, over 10 µM. Also, the half-inhibitory concentration (IC50) on Human Calpain 1/NS1 was under 3 µM.

As to `CC(C)C[C@H](NC(=O)OC(C)(C)C)C(=O)N[C@@H]1/C=C/C(=O)N[C@@H](C(C)C)C(=O)N[C@@H](Cc2ccc(O)cc2)C(=O)OC1` [Compound 12, tert-butyl ((S)-1-(((3S,6S,11R,E)-3-(4-hydroxybenzyl)-6-isopropyl-2,5,8-trioxo-1-oxa-4,7-diazacyclododec-9-en-11-yl)amino)-4-methyl-1-oxopentan-2-yl)carbamate], the 50% inhibitory concentration (IC50) against Human Cathepsin L was under 3 µM; on Human Cathepsin B, under 3 µM; on Human Cathepsin K, under 3 µM; against Human Cathepsin S it was under 3 µM; on Human Calpain 2/NS1, under 3 µM; against Human Calpain 9/NS1, over 10 µM. This compound yielded an IC50 at Human Calpain 1/NS1 of under 3 µM.

For `CC(C)[C@@H]1NC(=O)/C=C/[C@@H](NC(=O)OC(C)(C)C)COC(=O)[C@H](Cc2ccccc2)NC1=O` [Compound 5, Tert-butyl ((3S,6S,11R,E)-3-benzyl-6-isopropyl-2,5,8-trioxo-1-oxa-4,7-diazacyclododec-9-en-11-yl)carbamate], the IC50 against Human Cathepsin L was under 3 µM; at Human Cathepsin B, 3 to 10 µM; against Human Cathepsin K, under 3 µM; at Human Cathepsin S, under 3 µM; against Human Calpain 2/NS1, over 10 µM; on Human Calpain 9/NS1, over 10 µM. Besides, the IC50 against Human Calpain 1/NS1 was over 10 µM.
